Measurements as given in patent US7696243B2, “Pyrrolidin-2-one derivatives for use as DP1 receptor agonists” (Merck Serono, S.A., priority 2004, dated 2010).
Entries after “also recorded” stand apart in the source; their conditions may differ.

Experiments:
h-DP1 [1] = biological target: T1, h-DP1 (Homo sapiens, UniProt Q13258); experiment: Whole cell second messenger (cAMP) assay on cells expressing DP1; assay type: cell-based
T1 construct: expressed in transfected cells; host or cells: HEK293-EBNA
T1 sequence (Q13258 1-359): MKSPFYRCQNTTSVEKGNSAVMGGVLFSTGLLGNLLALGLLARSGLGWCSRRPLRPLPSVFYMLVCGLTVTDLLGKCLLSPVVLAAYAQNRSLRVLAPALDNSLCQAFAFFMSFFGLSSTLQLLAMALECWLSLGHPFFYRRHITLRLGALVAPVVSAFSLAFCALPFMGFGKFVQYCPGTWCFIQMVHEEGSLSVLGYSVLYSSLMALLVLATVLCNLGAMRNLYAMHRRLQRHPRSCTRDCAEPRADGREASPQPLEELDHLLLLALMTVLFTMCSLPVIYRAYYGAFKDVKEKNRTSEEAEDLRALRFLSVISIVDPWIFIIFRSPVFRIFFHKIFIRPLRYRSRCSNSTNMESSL
Procedure: Whole cell second messenger assays measuring stimulation (EP2, EP4, DP1, DP2 and IP in HEK 293(ebna) cells) or inhibition (EP3 in human erythroleukemia (HEL) cells) of intracellular cAMP accumulation or mobilization of intracellular calcium (EP1, FP and TP in HEK 293(ebna) cells stably transfected with apo-aequorin) are performed to determine whether receptor ligands are agonists or antagonists. For cAMP assays, cells are harvested and resuspended in HBSS containing 25 mM HEPES, pH 7.4. Incubations contain 100 μM RO-20174 (phosphodiesterase type IV inhibitor, available from Biomol) and, in the case of the EP3 inhibition assay only, 15 μM forskolin to stimulate cAMP production.
Samples are incubated at 37° C. for 10 min, the reaction is terminated and cAMP levels are then measured. For calcium mobilization assays, cells are charged with the co-factors reduced glutathione and coelenterazine, harvested and resuspended in Ham's F12 medium. Calcium mobilization is measured by monitoring luminescence provoked by calcium binding to the intracellular photoprotein aequorin. Ligands are added in dimethylsulfoxide which is kept constant at 1% (v/v) in all incubations.
For agonists, second messenger responses are expressed as a function of ligand concentration and both EC50 values and the maximum response as compared to a prostanoid standard are calculated. For antagonists, the ability of a ligand to inhibit an agonist response is determined by Schild analysis and both KB and slope values are calculated.
In another exemplary protocol, HEK293-EBNA cells transfected with the appropriate receptors are seeded in 96 well opaque plate (Costar #3917) at 4×10^4 cells per well in 100 μl of culture medium (D-MEM/F12 supplemented with 10% FBS, […] L-glutamine, and 250 μg/ml of hygromycin; all from GibcoBRL) and incubated at 37° C. After overnight incubation, the medium was removed from each well and replaced with 45 μl of assay medium consisted of phenol red free D-MEM/F-12, 0.1% BSA (GibcoBRL) and 0.1 mM 3 isobutyl-1-methyl-xanthine (Sigma). After 15 minutes of incubation at 37° C., 16-16-dimethyl PGE-2 or compounds at desired concentrations in 20 μl of assay medium were added to cells and further incubated at 37° C. for 1 hour. Total cAMP (intra- and extracellular) was measured by using a cAMP-screen ELISA System (Tropix #CS1000).

[2] = test system: human penile cavernosal tissue strips; experiment: Organ bath: relaxation of human penile cavernosal tissue strips after contraction with phenylephrine
Procedure: Human tissue procurement. Cavernosal tissue is obtained from patients undergoing penile prosthesis implantation surgery for treatment of erectile dysfunction. In the operating room, biopsies of the corpora cavernosa are immediately placed in chilled (4° C.) physiologic salt solution and transported to the laboratory. Tissue strips, measuring approximately 3 mm×3 mm×10 mm, are cut and prepared for organ bath studies.
Preparation of compound stock solutions and dose responses. PGE1 (Cayman Chemical Co., Ann Arbor, Mich.) is stored at −20° C. in solid form until the day of use. Stock solutions are made by adding 1 ml of 70% DMSO to a vial containing 1 mg of PGE1. Compounds of the invention are dissolved in 1 ml of 70% DMSO, divided into 100 μl aliquots and stored at −20° C. until use. For dose responses in organ baths, stock solutions of PGE1 and compounds of the invention are diluted with 70% DMSO to make the highest concentration and then serially diluted with 2% DMSO for all other doses. In a typical dose response curve, the concentration of DMSO is checked to remain below […] in the 25 ml bath and to not exceed 0.5% at the highest dose.
Organ bath studies. Human or rabbit cavernosal tissue strips are mounted onto a fixed support with silk ties and attached to a tension transducer (model FT03; GrassTelefactor, Astro-Med, Inc. West Warwick, R.I.) with a rigid metal wire. After mounting, tissue strips are immersed in 25 ml baths of physiologic salt solution (PSS; 118.3 mM NaCl, 4.7 mM KCl, 0.6 mMMgSO4, 1.2 mMKH2PO4, 2.5 mMCaCl2, 25 mMNaHCO3, 0.026 mM CaNa2EDTA, 11.1 mM glucose). The solution is gassed with 95% […]/5% CO2 to attain a pH of 7.4 and the temperature is maintained at 37° C. All tissue strips are treated with 3 μM indomethacin to inhibit endogenous prostanoid production and minimize spontaneous contractile activity. The corpus cavernosum tissue is stretched incrementally and the optimal resting isometric tension for contraction is determined. After every 3-4 stretches (1 g tension/stretch), the tissue is contracted with 1 μM phenylephrine. When the amplitude of the phenylephrine-induced contraction is within 10% of the previous contraction, that tension is considered optimal for isometric contraction. All tissue strips are extensively washed with fresh PSS. Tissue strips are then contracted with 1 μM phenylephrine. After stable tone is achieved, tissue strips are exposed to increasing concentrations of PGE1 or compounds of the invention.
Data analysis. At the end of each experiment, all tissue strips are treated with 10 μM papaverine and 10 μM nitroprusside to induce maximal relaxation (100%). The total amount of relaxatory response over the range of drug concentrations tested is determined by the area under the plotted curves. EC50 values are calculated using Prism software (GraphPad, San Diego, Calif.). For final analysis of data, relaxation parameters are compared using ANOVA. If the ANOVA p-value is less than 0.05, paired post-test comparisons is carried out using the Tukey-Kramer test.

h-DP1 [3] = biological target: T1, h-DP1; experiment: DP1 receptor binding assay (SPA, receptor membranes)
Procedure: (§1) HEK 293(ebna) cells or other cells stably transfected with the appropriate receptor are maintained in culture, harvested and membranes are prepared by differential centrifugation, following lysis of the cells in the presence of protease inhibitors, for use in receptor binding assays.
(§2) Prostanoid receptor binding assays are performed in 10 mM MES/KOH (pH 6.0) (EPs, FP and TP) or 10 mM HEPES/KOH (pH 7.4) (DP and IP), containing 1 mM EDTA, 10 mM divalent cation and the appropriate radioligand for the given receptor. The reaction is initiated by addition of membrane protein. Typically, the ligands are added in a solvent such as dimethylsulfoxide which is kept constant at 1% (v/v) in all incubations. Non-specific binding is determined in the presence of 1 μM of the corresponding non-radioactive prostanoid. Incubations are conducted for 60 min at room temperature or 30° C. and terminated by rapid filtration. Specific binding is calculated by subtracting non-specific binding from total binding. The residual specific binding at each ligand concentration is calculated and expressed as a function of ligand concentration in order to construct sigmoidal concentration-response curves for determination of ligand affinity.
(§3) In another protocol, compounds of the invention are tested in DP1 receptor binding assay of the following protocol. A mixture containing 20 μg of DP1 receptor membranes, 0.5 mg of wheat germ agglutinin coated PVT-SPA beads, plus or minus a test compound of the invention (25 μl per well) or 10 μM of cold PGE2 at 1% DMSO and 20 nM radiolabeled ligand for the receptor (e.g., tritiated-PGE2) in assay buffer containing 25 mM MES, 10 mM MgCl2, 1 mM EDTA, pH 6.0 are incubated in Corning 3600 plates on a plate shaker for 2 hrs at room temperature. Binding of the radiolabeled ligand binding is evaluated by counting the plates on the top count using the 3H SPA dpm2 program. % Binding and Ki value for inhibitors are calculated based on the one site competition parameter using the Graphpad® prism program. Such an assay may be modified by employing the different receptors and their specific ligands to assess the activity of the compounds of the present invention against such receptors. Using such an assay, the DP1 Ki values for a number of exemplary compounds of the present invention were calculated and are shown in Table 1.

h-DP2 = biological target: T2, h-DP2 (Homo sapiens, UniProt Q9Y5Y4); experiment: Prostanoid receptor binding assay, DP2; details: n = 2
T2 construct: expressed in transfected cells; host or cells: HEK 293(ebna) cells or other stably transfected cells; membranes
T2 sequence (Q9Y5Y4 1-395): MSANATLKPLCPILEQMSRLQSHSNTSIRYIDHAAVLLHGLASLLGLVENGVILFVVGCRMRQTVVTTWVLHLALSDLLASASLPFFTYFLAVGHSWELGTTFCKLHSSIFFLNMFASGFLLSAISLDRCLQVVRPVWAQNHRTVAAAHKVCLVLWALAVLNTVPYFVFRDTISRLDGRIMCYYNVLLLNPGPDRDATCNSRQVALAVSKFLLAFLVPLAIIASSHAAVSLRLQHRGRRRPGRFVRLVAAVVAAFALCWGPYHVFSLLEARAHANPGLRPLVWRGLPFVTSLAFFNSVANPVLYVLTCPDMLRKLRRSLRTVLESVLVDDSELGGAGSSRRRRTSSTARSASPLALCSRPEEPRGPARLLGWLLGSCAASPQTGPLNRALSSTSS
Procedure: as §1, §2, §3

rabbits = experiment: In vivo intracavernosal injection, erectile response (ICP/SAP); details: rabbit
Procedure: DP agonists were solubilized in 40% propylene glycol and administered by intracavernosal injection to deliver the indicated dose in 0.1 ml total volume. Since penile intracavernosal pressure (ICP) is ultimately limited by the systemic arterial pressure (SAP), all erectile responses were normalized by calculating the ration of ICP/SAP.

[4] = after contraction with phenylephrine

| SMILES | EC50 (h-DP1 [1]) [nM] | EC50 [2, 4] [nM] | Ki (h-DP1 [3]) [nM] | Ki (h-DP2) [µM] | also measured |
| --- | --- | --- | --- | --- | --- |
| O=C(O)CCCCCCC1C(=O)NC(=O)N1CCC(O)C1CCCCC1 (stereo not shown) [BW245C, reference compound] | 0.031 | 59 | – | – | – |
| O=C(O)CCCCCC[C@H]1CCC(=O)N1CC[C@@H](O)C1CCCCC1 [Example 3, 7-{(2S)-1-[(3R)-3-cyclohexyl-3-hydroxypropyl]-5-oxopyrrolidin-2-yl}heptanoic acid] | 0.037 | – | 1.8 | > 10 | – |
| O=C(O)CCCCCC[C@H]1CCC(=O)N1CCC(O)C1CCCCC1 (stereo in doubt) [Example 4, 7-{(2S)-1-[(3R)-3-cyclohexyl-3-hydroxypropyl]-5-oxopyrrolidin-2-yl}heptanoic acid] | 1.38 | – | 47.2 | > 10 | – |
| O=C(O)c1ccc(CCC[C@H]2CCC(=O)N2CC[C@@H](O)C2CCCCC2)cc1 [Example 1, 4-(3-(2S)-1-[(3R)-3-cyclohexyl-3-hydroxypropyl]-5-oxotetrahydro-1H-2-pyrrolylpropyl)benzoic acid] | – | – | 2.4 | > 10 | EC50 ([2]; Homo sapiens, after contraction with phenylephrine): 29 nM; Relaxation of human penile cavernosal tissue strips (in words) [2, 4]: dose-dependent relaxation; Extent of relaxation (maximal effect) versus BW245C ([2]; human cavernosal tissue): greater; Systemic blood pressure (rabbits; any dose): no overt changes; Arterial pressure (rabbits; intracavernosal): remained constant; Duration of transient episodes of penile tumescence (rabbits; intracavernosal): 1 to 3 min; ICP/SAP (peak response or AUC) compared to vehicle (rabbits; intracavernosal): dose-dependant increases; Penile response at highest dose (rabbits; intracavernosal, 5 μg, single animals): repeated and transient episodes of spontaneous penile tumescence; also recorded: penile resistance arteries were fully dilated; Penile tumescence after intracavernosal injection (rabbits; intracavernosal, 40% propylene glycol): sustained periods of penile tumescence or transient episodes |
| O=C(O)c1ccc(CCC[C@H]2CCC(=O)N2CC[C@H](O)C2CCCCC2)cc1 [Example 2, 4-(3-(2S)-1-[(3S)-3-cyclohexyl-3-hydroxypropyl]-5-oxotetrahydro-1H-2-pyrrolylpropyl)benzoic acid] | 0.71 | – | 10.5 | > 10 | – |

Further lines, with some results ahead:

| EC50 (h-DP1 [1]) [nM] | EC50 [2, 4] [nM] | Ki (h-DP1 [3]) [nM] | Ki (h-DP2) [µM] | SMILES | also measured |
| --- | --- | --- | --- | --- | --- |
| 0.3 | 0.3 | 4.1 | – | CCCCC[C@H](O)/C=C/[C@H]1C(=O)C[C@H](O)[C@@H]1C/C=C\CCCC(=O)O [PGD2] | Effect at concentrations higher than 0.3 μM ([2]; human cavernosal tissue): caused contraction; Concentration through which dose-dependent relaxation was seen ([2]; human cavernosal tissue, contraction at higher concentration): ≤ 0.3 µM |
| – | 210 | – | – | CCCCC[C@H](O)/C=C/[C@H]1[C@H](O)CC(=O)[C@@H]1CCCCCCC(=O)O [PGE1] | – |
